From patent US20030083271A1, “Topoisomerase I selective cytotoxic sugar derivatives of indolopyrrolocarbazoles” (priority 2001, published 2003) come the findings set out here.

Assay [1] concerns the target T1, purified human topoisomerase I (Homo sapiens, UniProt P11387).
T1 construct: purchased Topogen
T1 sequence (P11387 1-765): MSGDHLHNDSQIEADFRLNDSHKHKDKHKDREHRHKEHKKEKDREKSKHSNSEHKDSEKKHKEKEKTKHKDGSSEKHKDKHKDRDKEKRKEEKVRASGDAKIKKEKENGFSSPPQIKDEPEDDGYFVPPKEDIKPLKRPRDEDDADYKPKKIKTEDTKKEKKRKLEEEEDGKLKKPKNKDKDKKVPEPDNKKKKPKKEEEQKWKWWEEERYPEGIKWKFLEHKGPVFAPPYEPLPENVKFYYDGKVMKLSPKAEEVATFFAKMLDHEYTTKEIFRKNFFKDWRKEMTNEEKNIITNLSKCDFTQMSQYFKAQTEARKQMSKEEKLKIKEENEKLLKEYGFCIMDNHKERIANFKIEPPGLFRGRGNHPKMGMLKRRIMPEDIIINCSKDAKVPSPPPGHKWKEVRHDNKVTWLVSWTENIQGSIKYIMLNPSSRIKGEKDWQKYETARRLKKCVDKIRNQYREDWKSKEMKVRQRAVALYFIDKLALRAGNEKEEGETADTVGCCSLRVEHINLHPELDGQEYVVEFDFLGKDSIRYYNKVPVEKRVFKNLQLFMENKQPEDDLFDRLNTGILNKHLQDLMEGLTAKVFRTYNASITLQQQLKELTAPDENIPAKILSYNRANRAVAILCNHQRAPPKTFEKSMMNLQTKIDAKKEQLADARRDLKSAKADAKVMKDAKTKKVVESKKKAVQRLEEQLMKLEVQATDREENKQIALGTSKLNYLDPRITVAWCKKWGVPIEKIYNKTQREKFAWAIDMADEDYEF
Kind of assay: Topoisomerase I-mediated single strand DNA break induction (in vitro). Conditions: median effect concentration for inducing single-strand breaks in the DNA substrate; read-out: Topo I EC50. Format: biochemical. The gist of the method: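 Supercoiled PM2 DNA incubated with compound dilutions and 1000 units purified human topoisomerase I, 30 min at 37° C; stopped with SDS/proteinase K. Products separated on ethidium-stained agarose gel, quantified by densitometry as % single-strand breaks; EC50 interpolated from dose-effect curve.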

Assay [2] deals with P388/CPT45 cells. The assay can be described thus: Cytotoxicity in camptothecin-resistant P388/CPT45 cells relative to parental P388 (selectivity index R/S). In kind it is cell-based, murine. Conditions: IC50 P388/CPT45 cells divided by IC50 parental P388 cells. In outline: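 Murine P388 leukemia cells and their camptothecin-resistant P388/CPT45 subline were plated at 8,000 cells/well and exposed to serial compound dilutions for 72 h at 37 °C. Viability was read by MTS/PMS reduction at 492 nm, with IC50 taken against untreated cells. R/S is the P388/CPT45 IC50 divided by the parental P388 IC50.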

Each structure is given as a SMILES string.

What is called EC50 is the concentration giving half of the maximal effect. In the case of `O=C1NC(=O)c2c1c1c3cc(F)c(F)cc3sc1c1c2c2cc(F)c(F)cc2n1[C@@H]1O[C@H](CF)C[C@H](O)[C@H]1O` [Example 9, 12-[4,6-Dideoxy-6-fluoro-β-D-glucopyranosyl]-2,3,9,10-tetrafluoro-5H, 13H-benzo[b]thienyl[2,3-a]pyrrolo[3,4-c]carbazole-5,7(6H)-dione], the EC50 in assay [1] was 230 nM. Moreover, the “Selectivity Index R/S” value in assay [2] is 120.2.
The like results for `O=C1NC(=O)c2c1c1c3cc(F)c(F)cc3sc1c1c2c2cc(F)c(F)cc2n1[C@@H]1O[C@H](CO)[C@@H](F)[C@H](O)[C@H]1O` [Example 33, 12-[4-Deoxy-4-fluoro-β-D-glucopyranosyl]-2,3,9,10-tetrafluoro-5H,13H-benzo[b]thienyl[2,3-a]pyrrolo[3,4-c]carbazole-5,7(6H)-dione] were, in that order, 50 nM and greater than 1657.6.
The like results for `O=C1NC(=O)c2c1c1c3cc(F)ccc3[nH]c1c1c2c2cc(F)ccc2n1[C@@H]1O[C@H](CO)[C@@H](F)[C@H](O)[C@H]1O` [Example 24, 12-[4-Deoxy-4-fluoro-β-D-glucopyranosyl]-3,9-difluoro-12,13-dihydro-5H-indolo[2,3-a]pyrrolo[3,4-c]carbazole-5,7(6H)-dione] were, in that order, 20 nM and 379.0.
The like results for `O=C1NC(=O)c2c1c1c3cc(F)c(F)cc3sc1c1c2c2cc(F)c(F)cc2n1[C@@H]1O[C@H](CF)[C@@H](F)[C@H](O)[C@H]1O` [Example 26, 12-[4,6-Difluoro-4,6-dideoxy-β-D-glucopyranosyl]-2,3,9,10-tetrafluoro-5H, 13H-benzo[b]thienyl[2,3-a]pyrrolo[3,4-c]carbazole-5,7(6H)-dione] were, in that order, 130 nM and 387.8.
Turning to `O=C1NC(=O)c2c1c1c3cc(F)ccc3[nH]c1c1c2c2cc(F)ccc2n1[C@@H]1O[C@H](CF)[C@@H](F)[C@H](O)[C@H]1O` [Example 27], the 50% effective concentration (EC50) in assay [1] worked out at 150 nM. Besides, the “Selectivity Index R/S” value in assay [2] was 448.4.
